Data taken from BindingDB's records for doi:10.1021/jm030493t (Johnson & Johnson Pharmaceutical Research & Development, 2004).
pIC50: −log10 of the molar value.

Test: Compound was tested for inhibition of gel-filtered platelet (GFP) aggregation induced by alpha-thrombin

CN[C@H](Cc1ccccc1)C(=O)N1CCC[C@H]1C(=O)N[C@@H](CCCN=C(N)N)C(=O)c1nc2ccccc2s1 [RWJ-50353]
pIC50: 7.49

CN[C@H](Cc1ccccc1)C(=O)N1CCCC1C(=O)N[C@H](C=O)CCCNC(=N)N (stereo partly drawn) [(S)-1-((R)-2-Methylamino-3-phenyl-propionyl)-pyrrolidine-2-carboxylic acid ((S)-1-formyl-4-guanidino-butyl)-amide]
pIC50: 7.08
